Source: US20260028354A1, “TETRAHYDRONAPHTHALENE DERIVATIVES AS ESTROGEN RECEPTOR DEGRADERS” (REGENT OF THE UNIVERSITY OF MICHIGAN, priority 2022, published 2026)

assay: Western blot analysis for "B" compounds; type: cell-based; conditions: read-out: Traditional Western Degradation Potency (DC50)
Procedure, shortened: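 Target protein levels given as relative mean band intensity over GAPDH from scanned immunoblots. Lysates of treated cells in RIPA buffer, equalized by BCA, separated on 10% gels and transferred to PVDF.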

Row | DC50 [nM] | SMILES
1 | > 100 | O=C1CCC(N2C(=O)c3cc4c(cc3C2=O)CN(C[C@H]2CC[C@H](N3CC(Nc5ccc([C@@H]6c7ccc(O)cc7CC[C@@H]6c6ccccc6)cc5)C3)CC2)C4)C(=O)N1 (stereo partly drawn) [Compound B118, 2-(2,6-dioxopiperidin-3-yl)-6-(((1R,4r)-4-(3-((4-((1R,2S)-6-hydroxy-2-phenyl-1,2,3,4-tetrahydronaphthalen-1-yl)phenyl)amino)azetidin-1-yl)cyclohexyl)methyl)-6,7-dihydropyrrolo[3,4-f]isoindole-1,3(2H,5H)-dione]
2 | < 10 | O=C1CCC(N2C(=O)c3cc4c(cc3C2=O)CN([C@H]2CC[C@@H](C(=O)N3CC(Oc5ccc([C@@H]6c7ccc(O)cc7CC[C@@H]6c6ccccc6)cc5)C3)CC2)C4)C(=O)N1 (stereo partly drawn) [Compound B123, 2-(2,6-dioxopiperidin-3-yl)-6-((1R,4s)-4-(3-(4-((1R,2S)-6-hydroxy-2-phenyl-1,2,3,4-tetrahydronaphthalen-1-yl)phenoxy)azetidine-1-carbonyl)cyclohexyl)-6,7-dihydropyrrolo[3,4-f]isoindole-1,3(2H,5H)-dione]
3 | > 100 | O=C1CCC(N2C(=O)c3cc4c(cc3C2=O)CN(C(=O)CN2CCC3(CC2)CCN(c2ccc([C@@H]5c6ccc(O)cc6CC[C@@H]5c5ccccc5)c(F)c2)C3)C4)C(=O)N1 (mixture of isomers) [Compound B32, 2-(2,6-dioxopiperidin-3-yl)-6-(2-(2-(3-fluoro-4-((1S,2S)-6-hydroxy-2-phenyl-1,2,3,4-tetrahydronaphthalen-1-yl)phenyl)-2,8-diazaspiro[4.5]decan-8-yl)acetyl)-6,7-dihydropyrrolo[3,4-f]isoindole-1,3(2H,5H)-dione]
4 | 10 to 100 | O=C1CCC(N2C(=O)c3cc4c(cc3C2=O)CN(C2CCN(C(=O)[C@H]3C[C@H](Oc5ccc([C@@H]6c7ccc(O)cc7CC[C@@H]6c6ccccc6)cc5)C3)CC2)C4)C(=O)N1 (stereo partly drawn) [Compound B285, 2-(2,6-dioxopiperidin-3-yl)-6-(1-((1R,3r)-3-(4-((1R,2S)-6-hydroxy-2-phenyl-1,2,3,4-tetrahydronaphthalen-1-yl)phenoxy)cyclobutane-1-carbonyl)piperidin-4-yl)-6,7-dihydropyrrolo[3,4-f]isoindole-1,3(2H,5H)-dione]
5 | > 100 | O=C1CCC(N2C(=O)c3cc4c(cc3C2=O)CN(CC2(F)CCN(C(=O)C3(F)CN(c5ccc([C@@H]6c7ccc(O)cc7CC[C@@H]6c6ccccc6)cc5)C3)CC2)C4)C(=O)N1 (stereo partly drawn) [Compound B265, 2-(2,6-dioxopiperidin-3-yl)-6-((4-fluoro-1-(3-fluoro-1-(4-((1R,2S)-6-hydroxy-2-phenyl-1,2,3,4-tetrahydronaphthalen-1-yl)phenyl)azetidine-3-carbonyl)piperidin-4-yl)methyl)-6,7-dihydropyrrolo[3,4-f]isoindole-1,3(2H,5H)-dione]
6 | > 100 | O=C1CCC(N2C(=O)c3cc4c(cc3C2=O)CN(C2CCN(C(=O)C3(F)CCN(c5ccc([C@@H]6c7ccc(O)cc7CC[C@@H]6c6ccccc6)cc5)CC3)CC2)C4)C(=O)N1 (stereo partly drawn) [Compound B280, 2-(2,6-dioxopiperidin-3-yl)-6-(1-(4-fluoro-1-(4-((1R,2S)-6-hydroxy-2-phenyl-1,2,3,4-tetrahydronaphthalen-1-yl)phenyl)piperidine-4-carbonyl)piperidin-4-yl)-6,7-dihydropyrrolo[3,4-f]isoindole-1,3(2H,5H)-dione]
7 | > 100 | O=C1CCC(N2C(=O)c3cc4c(cc3C2=O)CC2(C4)CN(CC3CCN(c4ccc([C@@H]5c6ccc(O)cc6CC[C@@H]5c5ccccc5)cc4)CC3)C2)C(=O)N1 (stereo partly drawn) [Compound B296, 2′-(2,6-dioxopiperidin-3-yl)-1-((1-(4-((1R,2S)-6-hydroxy-2-phenyl-1,2,3,4-tetrahydronaphthalen-1-yl)phenyl)piperidin-4-yl)methyl)-5′,7′-dihydro-1′H-spiro[azetidine-3,6′-cyclopenta[f]isoindole]-1′,3′(2'H)-dione]
8 | 10 to 100 | O=C1CCC(N2Cc3cc4c(cc3C2=O)CN(CC(=O)N2CCC3(CCN(c5ccc([C@@H]6c7ccc(O)cc7CC[C@@H]6c6ccccc6)cc5)CC3)C2)C4)C(=O)N1 (mixture of isomers) [Compound B182, 3-(6-(2-(8-(4-((1R,2S)-6-hydroxy-2-phenyl-1,2,3,4-tetrahydronaphthalen-1-yl)phenyl)-2,8-diazaspiro[4.5]decan-2-yl)-2-oxoethyl)-1-oxo-3,5,6,7-tetrahydropyrrolo[3,4-f]isoindol-2(1H)-yl)piperidine-2,6-dione]
9 | > 100 | CN(c1ccc([C@@H]2c3ccc(O)cc3CC[C@@H]2c2ccccc2)cc1)C1CN(C[C@H]2CC[C@H](C(=O)N3Cc4cc5c(cc4C3)C(=O)N(C3CCC(=O)NC3=O)C5=O)CC2)C1 (stereo partly drawn) [Compound B132, 2-(2,6-dioxopiperidin-3-yl)-6-((1R,4r)-4-((3-((4-((1R,2S)-6-hydroxy-2-phenyl-1,2,3,4-tetrahydronaphthalen-1-yl)phcnyl)(mcthyl)amino)azctidin-1-yl)mcthyl)cyclohexanc-1-carbonyl)-6,7-dihydropyrrolo[3,4-f]isoindole-1,3(2H,5H)-dione]
10 | > 100 | O=C1CCC(N2C(=O)c3cc4c(cc3C2=O)CN([C@H]2CC[C@H](C(=O)N3CC(Nc5ccc([C@@H]6c7ccc(O)cc7CC[C@@H]6c6ccccc6)cc5)C3)CC2)C4)C(=O)N1 (stereo partly drawn) [Compound B124, 2-(2,6-dioxopiperidin-3-yl)-6-((1S,4r)-4-(3-((4-((1R,2S)-6-hydroxy-2-phenyl-1,2,3,4-tetrahydronaphthalen-1-yl)phenyl)amino)azetidine-1-carbonyl)cyclohexyl)-6,7-dihydropyrrolo[3,4-f]isoindole-1,3(2H,5H)-dione]
11 | > 100 | O=C1CCC(N2C(=O)c3cc4c(cc3C2=O)CN(CC2(F)CN(C(=O)C3CCN(c5ccc([C@@H]6c7ccc(O)cc7CC[C@@H]6c6ccccc6)cc5)CC3)C2)C4)C(=O)N1 (stereo partly drawn) [Compound B268, 2-(2,6-dioxopiperidin-3-yl)-6-((3-fluoro-1-(1-(4-((1R,2S)-6-hydroxy-2-phenyl-1,2,3,4-tetrahydronaphthalen-1-yl)phenyl)piperidine-4-carbonyl)azetidin-3-yl)methyl)-6,7-dihydropyrrolo[3,4-f]isoindole-1,3(2H,5H)-dione]
12 | 10 to 100 | O=C1CCC(N2C(=O)c3cc4c(cc3C2=O)CN(C2CCC(C(=O)N3CCCC(Oc5ccc([C@@H]6c7ccc(O)cc7CC[C@@H]6c6ccccc6)cc5)C3)CC2)C4)C(=O)N1 (mixture of isomers) [Compound B15, 2-(2,6-dioxopiperidin-3-yl)-6-(4-(3-(4-((1R,2S)-6-hydroxy-2-phenyl-1,2,3,4-tetrahydronaphthalen-1-yl)phenoxy)piperidine-1-carbonyl)cyclohexyl)-6,7-dihydropyrrolo[3,4-f]isoindole-1,3(2H,5H)-dione]
13 | > 100 | O=C1CCC(N2C(=O)c3cc4c(cc3C2=O)CCN(CC(=O)N2CC3(CCN(c5ccc([C@@H]6c7ccc(O)cc7CC[C@@H]6c6ccc(F)cc6)cc5)CC3)C2)CC4)C(=O)N1 (stereo partly drawn) [Compound B53, 2-(2,6-dioxopiperidin-3-yl)-7-(2-(7-(4-((1R,2S)-2-(4-fluorophenyl)-6-hydroxy-1,2,3,4-tetrahydronaphthalen-1-yl)phenyl)-2,7-diazaspiro[3.5]nonan-2-yl)-2-oxoethyl)-6,7,8,9-tetrahydroazepino[4,5-f]isoindole-1,3(2H,5H)-dione]
14 | 10 to 100 | O=C1CCC(N2C(=O)c3cc4c(cc3C2=O)CN(CCN2CCC3(CC2)CCN(c2ccc([C@@H]5c6ccc(O)cc6CC[C@@H]5c5ccccc5)cc2)CC3)C4)C(=O)N1 (mixture of isomers) [Compound B198, 2-(2,6-dioxopiperidin-3-yl)-6-(2-(9-(4-((1R,2S)-6-hydroxy-2-phenyl-1,2,3,4-tetrahydronaphthalen-1-yl)phenyl)-3,9-diazaspiro[5.5]undecan-3-yl)ethyl)-6,7-dihydropyrrolo[3,4-f]isoindole-1,3(2H,5H)-dione]
15 | > 100 | O=C1CCC(N2C(=O)c3cc4c(cc3C2=O)CN(CC2CN(CC3CCN(c5ccc([C@@H]6c7ccc(O)cc7CC[C@@H]6c6ccccc6)cc5)CC3)C2)C4)C(=O)N1 (stereo partly drawn) [Compound B274, 2-(2,6-dioxopiperidin-3-yl)-6-((1-((1-(4-((1R,2S)-6-hydroxy-2-phenyl-1,2,3,4-tetrahydronaphthalen-1-yl)phenyl)piperidin-4-yl)methyl)azetidin-3-yl)methyl)-6,7-dihydropyrrolo[3,4-f]isoindole-1,3(2H,5H)-dione]
16 | > 100 | Cn1cc(-c2ccc3c(c2)CC[C@H](c2ccccc2)[C@@H]3c2ccc(N3CCC4(CCN(C(=O)CN5Cc6cc7c(cc6C5)C(=O)N(C5CCC(=O)NC5=O)C7=O)CC4)CC3)cc2)cn1 (stereo partly drawn) [Compound B323, 2-(2,6-dioxopiperidin-3-yl)-6-(2-(9-(4-((1R,2S)-6-(1-methyl-1H-pyrazol-4-yl)-2-phenyl-1,2,3,4-tetrahydronaphthalen-1-yl)phenyl)-3,9-diazaspiro[5.5]undecan-3-yl)-2-oxoethyl)-6,7-dihydropyrrolo[3,4-f]isoindole-1,3(2H,5H)-dione]
17 | > 100 | O=C1CCC(N2C(=O)c3cc4c(cc3C2=O)CN(CC2(F)CN(CC3CCN(c5ccc([C@@H]6c7ccc(O)cc7CC[C@@H]6c6ccccc6)cc5)CC3)C2)C4)C(=O)N1 (stereo partly drawn) [Compound B271, 2-(2,6-dioxopiperidin-3-yl)-6-((3-fluoro-1-((1-(4-((1R,2S)-6-hydroxy-2-phenyl-1,2,3,4-tetrahydronaphthalen-1-yl)phenyl)piperidin-4-yl)methyl)azetidin-3-yl)methyl)-6,7-dihydropyrrolo[3,4-f]isoindole-1,3(2H,5H)-dione]

Row | SMILES | DC50 [nM]
18 | O=C1CCC(N2C(=O)c3cc4c(cc3C2=O)CN(C2CC3CCC(C2)N3CC2CCN(c3ccc([C@@H]5c6ccc(O)cc6CC[C@@H]5c5ccccc5)cc3)CC2)C4)C(=O)N1 (stereo partly drawn) [Compound B292, 2-(2,6-dioxopiperidin-3-yl)-6-(8-((1-(4-((1R,2S)-6-hydroxy-2-phenyl-1,2,3,4-tetrahydronaphthalen-1-yl)phenyl)piperidin-4-yl)methyl)-8-azabicyclo[3.2.1]octan-3-yl)-6,7-dihydropyrrolo[3,4-f]isoindole-1,3(2H,5H)-dione] | > 100
